Active and inactive are the calls of the source. The rule behind the calls is not given here.
How the values were obtained:
[1] = target: T1, Metabotropic glutamate receptor 5 (Homo sapiens, UniProt P41594); assay: Displacement of [3H]MPEP from mGlu5 receptor
[2] = target: T1, Metabotropic glutamate receptor 5; assay: Antagonist activity at mGluR5 by FLIPR; type: functional
[3] = Metabolic stability in rat liver microsomes; type: ADME, Microsome
[4] = Metabolic stability in human liver microsomes; type: ADME, Microsome
Rattus norvegicus [5] = assay: Anxiolytic-like activity in rat assessed as increase in drinking time at 30 mg/kg, po by Vogel conflict test; type: functional, organism-based; set-up: dose 30 mg/kg
Rattus norvegicus [6] = species on record: Rattus norvegicus; assay: Anxiolytic-like activity in rat assessed as reversal of foot shock-induced suppression of lever pressing by conditioned emotional response test; type: functional, organism-based
Rattus norvegicus [7] = assay: Anxiolytic-like activity in rat assessed as behavioral disruption at 3 to 30 mg/kg, po by conditioned emotional response test; type: functional, organism-based
Rattus norvegicus [8] = species on record: Rattus norvegicus; assay: Anxiolytic-like activity in rat assessed as reversal of foot shock-induced suppression of lever pressing by conflict test; type: functional, organism-based
Rattus norvegicus [9] = assay: Anxiolytic-like activity in rat assessed as behavioral disruption at 3 to 30 mg/kg, po by conflict test; type: functional, organism-based

T1 sequence (P41594 whole entry): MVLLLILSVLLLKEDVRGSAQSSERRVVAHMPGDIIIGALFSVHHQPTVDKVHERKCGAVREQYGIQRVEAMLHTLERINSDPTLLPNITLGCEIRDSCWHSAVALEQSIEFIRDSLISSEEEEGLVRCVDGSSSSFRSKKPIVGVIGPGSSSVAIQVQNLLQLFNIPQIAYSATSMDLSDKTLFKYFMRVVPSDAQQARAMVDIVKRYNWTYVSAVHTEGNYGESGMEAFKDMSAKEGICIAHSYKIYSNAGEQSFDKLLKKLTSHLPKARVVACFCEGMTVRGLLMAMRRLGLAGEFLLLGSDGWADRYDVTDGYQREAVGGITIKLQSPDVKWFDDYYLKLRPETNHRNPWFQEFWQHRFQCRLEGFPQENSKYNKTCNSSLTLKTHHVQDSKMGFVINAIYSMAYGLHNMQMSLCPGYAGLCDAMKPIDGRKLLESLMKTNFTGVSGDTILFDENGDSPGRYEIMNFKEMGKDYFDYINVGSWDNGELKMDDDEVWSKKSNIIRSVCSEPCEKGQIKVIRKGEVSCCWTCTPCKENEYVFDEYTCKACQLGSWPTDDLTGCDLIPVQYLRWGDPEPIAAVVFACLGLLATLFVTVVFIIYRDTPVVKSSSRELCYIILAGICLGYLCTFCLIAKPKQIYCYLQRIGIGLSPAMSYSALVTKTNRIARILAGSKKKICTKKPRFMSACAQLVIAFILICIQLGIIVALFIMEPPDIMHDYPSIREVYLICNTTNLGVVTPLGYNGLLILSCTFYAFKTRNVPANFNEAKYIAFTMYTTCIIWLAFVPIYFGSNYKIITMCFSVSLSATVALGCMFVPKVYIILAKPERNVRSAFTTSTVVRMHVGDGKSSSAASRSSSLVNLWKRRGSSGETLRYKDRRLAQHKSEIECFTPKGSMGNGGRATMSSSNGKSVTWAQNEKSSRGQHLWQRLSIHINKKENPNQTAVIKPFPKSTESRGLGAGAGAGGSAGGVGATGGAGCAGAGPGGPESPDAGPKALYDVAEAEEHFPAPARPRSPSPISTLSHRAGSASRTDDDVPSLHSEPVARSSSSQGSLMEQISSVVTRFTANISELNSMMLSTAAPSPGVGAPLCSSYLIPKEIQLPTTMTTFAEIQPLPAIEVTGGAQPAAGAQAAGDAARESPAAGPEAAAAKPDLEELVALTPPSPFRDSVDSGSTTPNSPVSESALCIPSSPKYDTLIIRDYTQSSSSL

Row | Structure (SMILES) | IC50 [1] [nM] | IC50 [2] [nM] | microsomal CLint [3] [µL/min/mg] | microsomal CLint [4] [µL/min/mg] | other results
1 | CN1CC(=O)N/C1=N\C(=O)Nc1ccccc1Cl | 2520 | 6800 | – | – | –
2 | CN1CC(=O)N/C1=N\C(=O)Nc1ccccc1 | 1360 | 3300 | – | – | –
3 | CN1CC(=O)N/C1=N\C(=O)Nc1ccccn1 | 587 | 1100 | 22 | 47 | –
4 | CN1CC(=O)N/C1=N\C(=O)Nc1csc(Cl)c1 | 78 | 434 | 27 | 55 | Activity (Rattus norvegicus [5]): Active; Activity (Rattus norvegicus [6]): Dose-dependent effect; Activity (Rattus norvegicus [7]): inactive; Activity (Rattus norvegicus [8]): Dose-dependent effect; Activity (Rattus norvegicus [9]): inactive
5 | CN1CC(=O)N/C1=N\C(=O)Nc1ccc(Cl)cc1 | > 5000 | > 5000 | – | – | –
6 | Cc1cccc(C#Cc2ccccc2Cl)n1 | 5 | 15 | – | – | –
7 | Cc1cccc(C#Cc2cccc(Cl)c2)n1 | 3 | 7 | – | – | –
8 | Cc1cccc(C#Cc2cccnc2)n1 | 10 | 66 | – | – | –
9 | Cc1cccc(C#Cc2ccccn2)n1 | 39 | 400 | – | – | –
10 | Cc1cccc(C#Cc2ccc(Cl)cc2)n1 | 286 | 1020 | – | – | –
11 | CN1CC(=O)N/C1=N\C(=O)Nc1ccncc1 | 1120 | > 5000 | 9 | 11 | –
12 | CN1CC(=O)N=C1NC(=O)Nc1cccc(Cl)c1 [FENOBAM ANHYDROUS] | 61 | 38 | 44 | 100 | –
13 | CN1CC(=O)N/C1=N\C(=O)Nc1cccnc1 | > 5000 | > 5000 | 5 | 20 | –
14 | Cc1cccc(C#Cc2ccncc2)n1 | 26 | 213 | – | – | –
15 | CN1CC(=O)N/C1=N\C(=O)Nc1ccsc1 | 700 | 4020 | – | – | –
